# Tests used:
# Type in all cases: cell-based
# HTT mRNA [1] = experiment: Splicing RT-qPCR assay (THP), Table 2A; conditions: Table 2A, THP; for AC50: HTT alternative junction (AJ) mRNA, read-out: HTT AJ (AC50, increase in alternative junction mRNA); for IC50: HTT canonical junction (CJ) mRNA, read-out: HTT CJ (IC50, decrease in canonical junction mRNA)
# MYB mRNA [2] = experiment: Splicing RT-qPCR assay (THP), Table 2A; conditions: Table 2A, THP; for AC50: MYB alternative junction (AJ) mRNA, read-out: MYB AJ (AC50, increase in alternative junction mRNA); for IC50: MYB canonical junction (CJ) mRNA, read-out: MYB CJ (IC50, decrease in canonical junction mRNA)
# [3] = test system: SH-SY5Y (human neuroblastoma) cells; experiment: Cell viability, Cell Titer Glo 2.0 assay; conditions: read-out: Viability SHSY5Y.3 GI50
# In short: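 Toxicity screen in SH-SY5Y cells. Compounds were serially diluted in DMSO and then in medium, giving 0.1% DMSO final. Viability was read with CellTiter-Glo 2.0 after 72 h at 37 °C, 5% CO2, against medium-only blank wells.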
# HTT mRNA [4] = experiment: Gene panel canonical junction qPCR assay, decrease in CJ mRNA, Table 3; conditions: decrease in CJ mRNA levels, canonical junction qPCR, gene panel
# In short: (§1)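 A673 (DMEM, 10% FBS, 15,000 cells/well) or K562 (IMDM, 10% FBS) cells treated 24 h at 37 °C with 11-point 3-fold dilutions, top 10 uM, DMSO ≤0.25%. Canonical exon-exon junction mRNA measured by RT-qPCR, normalized to GAPDH, GUSB or PPIA and DMSO (ΔΔCt); IC50 from 4-parameter logistic fit.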
# MYB mRNA [5] = experiment: as above; conditions: decrease in CJ mRNA levels, canonical junction qPCR, gene panel
# In short: as §1
Structure (SMILES),AC50 (HTT mRNA [1]),IC50 (HTT mRNA [1]),AC50 (MYB mRNA [2]),IC50 (MYB mRNA [2]),GI50 [3],IC50 (HTT mRNA [4]),IC50 (MYB mRNA [5])
Cc1cn2cc(NC(=O)c3ccc(N4CCCCC4)c4cn(C)nc34)nc2c(CNS(C)(=O)=O)n1 [Compound 845],> 10000 nM,> 10000 nM,> 10000 nM,> 10000 nM,1000 to 10000 nM,> 10000 nM,> 10000 nM
"Cc1cn2cc(NC(=O)c3ccc(N4CCC(NC5CC5)CC4)c4cn(C)nc34)nc2c(CO)n1 [Compound 846, 4-[4-(cyclopropylamino)-1-piperidyl]-N-[8-(hydroxymethyl)-6-methyl-imidazo[1,2-a]pyrazin-2-yl]-2-methyl-indazole-7-carboxamide]",100 to 1000 nM,100 to 1000 nM,100 to 1000 nM,100 to 1000 nM,100 to 1000 nM,100 to 1000 nM,100 to 1000 nM
COc1cc2c(N3CCC(NC4CC4)CC3)ccc(C(=O)Nc3cc(CO)c4nn(C)cc4c3)n2n1 [Compound 847],100 to 1000 nM,100 to 1000 nM,< 100 nM,< 100 nM,100 to 1000 nM,100 to 1000 nM,< 100 nM
"CNC1CCN(c2ccc(C(=O)Nc3cn4cc(C)nc(CNS(C)(=O)=O)c4n3)c3nn(C)cc23)C1 (stereo not drawn) [Compound 848, N-[8-(methanesulfonamidomethyl)-6-methyl-imidazo[1,2-a]pyrazin-2-yl]-2-methyl-4-[3-(methylamino)pyrrolidin-1-yl]indazole-7-carboxamide]",100 to 1000 nM,100 to 1000 nM,100 to 1000 nM,100 to 1000 nM,100 to 1000 nM,100 to 1000 nM,100 to 1000 nM
CNC1CN(c2ccc(C(=O)Nc3cn4cc(C)nc(CNS(C)(=O)=O)c4n3)c3nn(C)cc23)C1 [Compound 849],100 to 1000 nM,100 to 1000 nM,100 to 1000 nM,100 to 1000 nM,100 to 1000 nM,100 to 1000 nM,100 to 1000 nM
CCNC1CCN(c2ccc(C(=O)Nc3cn4ccnc(CNS(C)(=O)=O)c4n3)c3nn(C)cc23)CC1 [Compound 850],> 10000 nM,> 10000 nM,> 10000 nM,> 10000 nM,> 10000 nM,> 10000 nM,> 10000 nM
Cc1cn2cc(NC(=O)c3ccc(N4CCC(N(C)C)CC4)c4cn(C)nc34)nc2c(CNS(C)(=O)=O)n1 [Compound 851],> 10000 nM,> 10000 nM,> 10000 nM,> 10000 nM,> 10000 nM,> 10000 nM,> 10000 nM
Cn1cc2cc(NC(=O)c3c(O)cc(N4CCC(NC5CC5)CC4)c4cn(C)nc34)cc(CNS(C)(=O)=O)c2n1 [Compound 852],1000 to 10000 nM,> 10000 nM,100 to 1000 nM,100 to 1000 nM,1000 to 10000 nM,> 10000 nM,100 to 1000 nM
COc1cc(N2CCC(NC3CC3)CC2)c2cn(C)nc2c1C(=O)Nc1cc(CNS(C)(=O)=O)c2nn(C)cc2c1 [Compound 853],> 10000 nM,> 10000 nM,> 10000 nM,> 10000 nM,> 10000 nM,> 10000 nM,> 10000 nM
C=CCNC1CCN(c2cc(O)c(C(=O)Nc3cc(CNS(C)(=O)=O)c4nn(C)cc4c3)c3nn(C)cc23)CC1 [Compound 854],1000 to 10000 nM,> 10000 nM,100 to 1000 nM,100 to 1000 nM,1000 to 10000 nM,> 10000 nM,100 to 1000 nM
COc1nc2c(C(=O)Nc3cc(CNS(C)(=O)=O)c4nc(C)cn4c3)ccc(N3CCC(NC4CC4)CC3)c2s1 [Compound 855],1000 to 10000 nM,1000 to 10000 nM,1000 to 10000 nM,1000 to 10000 nM,1000 to 10000 nM,1000 to 10000 nM,1000 to 10000 nM
CCNC1CCN(c2ccc(C(=O)Nc3cn4cc(C)nc(CC(=O)N(C)C)c4n3)c3nn(C)cc23)CC1 [Compound 856],1000 to 10000 nM,1000 to 10000 nM,1000 to 10000 nM,1000 to 10000 nM,1000 to 10000 nM,1000 to 10000 nM,1000 to 10000 nM
CCNC1CCN(c2ccc(C(=O)Nc3cn4cc(C)nc(CC(N)=O)c4n3)c3nn(C)cc23)CC1 [Compound 857],> 10000 nM,> 10000 nM,> 10000 nM,> 10000 nM,> 10000 nM,> 10000 nM,> 10000 nM
Cc1cc2c(N3CCC(NC4CC4)CC3)ccc(C(=O)Nc3cc(CO)c4nn(C)cc4c3)n2n1 [Compound 858],1000 to 10000 nM,1000 to 10000 nM,100 to 1000 nM,100 to 1000 nM,100 to 1000 nM,1000 to 10000 nM,100 to 1000 nM
Cc1cn2c(N3CCC(NC4CC4)CC3)ccc(C(=O)Nc3cc(CO)c4nn(C)cc4c3)c2n1 [Compound 859],1000 to 10000 nM,1000 to 10000 nM,100 to 1000 nM,100 to 1000 nM,1000 to 10000 nM,1000 to 10000 nM,100 to 1000 nM
Cc1cn2cc(NC(=O)c3ccc(N4CCC(NC5CC5)CC4)c4cn(C)nc34)nc2c(CNc2nccs2)n1 [Compound 860],> 10000 nM,> 10000 nM,> 10000 nM,> 10000 nM,1000 to 10000 nM,> 10000 nM,> 10000 nM
"Cn1cc2cc(NC(=O)c3ccc(N4CCC(NC5CC5)CC4)c4cn(C)nc34)cc(CNc3ncccn3)c2n1 [Compound 861, 4-[4-(cyclopropylamino)-1-piperidyl]-2-methyl-N-[2-methyl-7-[(pyrimidin-2-ylamino)methyl]indazol-5-yl]indazole-7-carboxamide]",> 10000 nM,1000 to 10000 nM,100 to 1000 nM,100 to 1000 nM,1000 to 10000 nM,1000 to 10000 nM,100 to 1000 nM
COc1nc2c(C(=O)Nc3cc(CO)c4nn(C)cc4c3)ccc(N3CCC(NC4CC4)CC3)c2s1 [Compound 862],100 to 1000 nM,100 to 1000 nM,100 to 1000 nM,100 to 1000 nM,100 to 1000 nM,100 to 1000 nM,100 to 1000 nM
CNCC1CN(c2ccc(C(=O)Nc3cn4cc(C)nc(CNS(C)(=O)=O)c4n3)c3nn(C)cc23)C1 [Compound 863],> 10000 nM,> 10000 nM,> 10000 nM,> 10000 nM,> 10000 nM,> 10000 nM,> 10000 nM
CCNC1(C)CCN(c2ccc(C(=O)Nc3cn4cc(C)nc(CNS(C)(=O)=O)c4n3)c3nn(C)cc23)CC1 [Compound 864],> 10000 nM,> 10000 nM,1000 to 10000 nM,1000 to 10000 nM,> 10000 nM,> 10000 nM,1000 to 10000 nM
"Cc1cn2cc(NC(=O)c3ccc(N4CCC(N)CC4)c4cn(C)nc34)nc2c(CNS(C)(=O)=O)n1 [Compound 865, 4-(4-amino-1-piperidyl)-N-[8-(methanesulfonamidomethyl)-6-methyl-imidazo[1,2-a]pyrazin-2-yl]-2-methyl-indazole-7-carboxamide]",> 10000 nM,> 10000 nM,1000 to 10000 nM,1000 to 10000 nM,> 10000 nM,> 10000 nM,1000 to 10000 nM

# From patent US20260285853A1, “COMPOUNDS AND METHODS FOR MODULATING SPLICING” (REMIX THERAPEUTICS INC., priority 2023, published 2026)
